Values of other authors as cited in US20090175824A1, “Peptides for the treatment of HCV infections” (priority 2007, published 2009).

Settings: patients with hepatitis C

## CC(C)(C)NC(=O)NC(C(=O)N1CC2C(C1C(=O)NC(CC1CCC1)C(=O)C(N)=O)C2(C)C)C(C)(C)C (centres unmarked) [boceprevir, N-(4-amino-1-cyclobutyl-3,4-dioxobutan-2-yl)-3-(2-(3-tert-butylureido)-3,3-dimethylbutanoyl)-6,6-dimethyl-3-azabicyclo[3.1.0]hexane-2-carboxamide]
  adverse events: infrequent and included headache, fever and myalgia
  tolerability: well-tolerated
